In patent US5928931A, “Isolation, purification and cloning of retinol dehydratase” (Cornell Research Foundation, Inc., priority 1997, dated 1999):
Entries after “also recorded” stand apart in the source; their conditions may differ. Read-outs that look alike come from different tables or passages of the source.

Legend:
Sf-21 cells = format: cell-based, Spodoptera frugiperda
Procedure: 10^7 Spodoplera frugiperda Sf-21 cells or Sf-9 cells were incubated with 1 μCi^3 H-retinol in Grace's insect cell media for 6 hours. Delipidated and radiolabelled retinoid metabolites were analyzed by radiomatic detection after separation by HPLC.
Che. Int. Ed. Engl., 33:1839-41 (1994), which is hereby incorporated by reference.

NIH 3T3 cells = experiment: Activation of resting serum-starved NIH 3T3 cells ([3H]thymidine incorporation); format: cell-based; conditions: for time from the start of activation to entry of the S phase: 5% fetal calf serum; for activation of growth arrested cells (thymidine incorporation over 24 hours): cells deprived of serum for 3 or 4 days; for concentrations that activate resting 3T3 cells (dose-response): four day serum-starved cells, FIG. 6B; for entry of treated cells into the S phase: data not shown
Procedure: FIGS. 6A and 6B show the activation of resting NIH 3T3 cells. In FIG. 6(a), one to four day serum-starved cells activated by serum, retinol, 14-HRR, and the peptide growth factors epidermal growth factor ("EGF") and platelet derived growth factor ("PDGF") are shown. […] NIH 3T3 cells were grown to confluence in Dulbecco's minimal essential medium ("DMEM") containing 10% fetal calf serum in 96-well microliter plates. All media were supplemented with 2 mM glutamine and 100 U/ml of penicillin/streptomycin. Cells were washed once with phosphate-buffered saline solution and incubated for one to four days in 200 μl/well of DMEM media/0.1% fetal calf serum ("starvation media"). On the indicated day, starvation media was replaced with 200 μl/well of insulin, transferrin, linoleic acid, bovine serum albumin ("ITLB") media, with or without fetal calf serum, retinoids, or peptide growth factors at the indicated concentrations. ITLB media is RPMI media (Gibco BRL, Grand Island, N.Y.) containing […] bovine serum albumin (1.2 mg/ml), linoleic acid (10^-6 M), bovine insulin (5 μg/ml), and transferrin (5 μg/ml). [^3 H]thymidine (1.2 μCi per well) was added at the beginning of the experiment, and the thymidine incorporation was determined after 24 h. The data represent the mean of triplicate measurements and standard deviations ("SD") were ≤17%. Recombinant PDGF (B/B) and EGF were purchased from Sigma Chemical Company or Boehringer Mannheim Corporation. Anhydroretinol was synthesized by acid catalyzed dehydration of all-trans-retinol. Embree, J. Biol. Chem. 128:187-98 (1939) and Derguini, et al., Angew. Chem. Int. Ed. Engl. 33:1839-41 (1994), which are hereby incorporated by reference. All-trans-14-hydroxy-4,14-retro-retinol was synthesized as described. Derguini, et al., J. Biochem. 33:623-28 (1994), which is hereby incorporated by reference.
Cells starved for 4 days in DMEM/0.1% fetal calf serum were activated with 5% fetal calf serum, 2 μM retinol, or 2 μM 14-HRR, and the cumulative thymidine incorporation was determined at the indicated time points. Δcpm corresponds to the increase in [^3 H]thymidine incorporation in the two hour period before the time point shown. This method is described in FIG. 6. The data in FIG. 7 represents the mean of quadruplicate measurements and SDs were ≤15%.
Cells starved for 4 days in DMEM/0.1% fetal calf serum were activated in 100 μl/well ITLB medium. At the indicated time points, anhydroretinol was added in 100 μl ITLB medium. This method is described in FIG. 6. The data in FIG. 8 represents the mean of quadruplicate measurements and SDs were ≤20%.
Cells starved for 4 days in DMEM/0.1% fetal calf serum were activated with 5% fetal calf serum, 2 μM retinol, or 2 μM 14-HRR. At the time points, 10^-5 M anhydroretinol was added. The cumulative [^3 H]thymidine incorporation was determined after 24 hours. […] The method is described in FIG. 6. The data in FIG. 9 represents the mean of triplicate measurements and SDs were ≤20%.
Confluent NIH 3T3 cells were starved for 1 to 4 days in medium containing 0.1% serum. Then, these starved cells were treated with serum, PDGF, EGF, retinol, or 14-HRR. Activation was quantitated by measuring the [^3 H] thymidine incorporated into newly synthesized DNA during the subsequent 24 hours (FIG. 6A). After a single day of serum starvation, the cells were not yet arrested, and the control cells incorporated the same amount of thymidine as the treated cells. After 2 days of serum deprivation, untreated cells incorporated slightly less thymidine, while cells treated with serum, peptide growth factors and retinoids maintained the original level of thymidine incorporation. In contrast, cells deprived of serum for 3 or 4 days were fully growth arrested; untreated cells incorporated little or no thymidine. […] All subsequent activation experiments were conducted using 4 day starved NIH 3T3 cells.

retinol dehydratase [1] = biological target: T1, retinol dehydratase (Spodoptera frugiperda, UniProt Q26490); experiment: Retinol dehydratase assay ([3H]-retinol to [3H]-AR, HPLC radiomatic detection); kinetic studies; format: biochemical
T1 sequence (Q26490 1-351): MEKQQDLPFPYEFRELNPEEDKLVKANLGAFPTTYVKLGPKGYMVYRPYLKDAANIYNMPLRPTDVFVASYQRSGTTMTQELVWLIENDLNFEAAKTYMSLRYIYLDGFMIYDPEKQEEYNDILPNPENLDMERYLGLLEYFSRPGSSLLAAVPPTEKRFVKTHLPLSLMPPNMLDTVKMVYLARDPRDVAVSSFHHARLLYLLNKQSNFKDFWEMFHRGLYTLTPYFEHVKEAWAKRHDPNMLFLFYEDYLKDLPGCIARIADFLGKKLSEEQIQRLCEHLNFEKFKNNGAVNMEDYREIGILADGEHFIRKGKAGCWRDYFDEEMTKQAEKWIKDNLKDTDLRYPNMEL
Procedure: 20-50 μl aliquots of supernatant/column fractions were incubated with 1 μCi of [^3 H]-retinol and 20 μl of high speed supernatant from sonicated Sf-9 cells in 200 μl assay buffer (20 mM Tris.Cl pH 7.5, 150 mM NaCl, I mM MgCI2) for 15-60 minutes at 24° C. […] Samples were delipidated and [^3 H]-AR production quantified by a liquid scintillation radiomatic detector in series with HPLC gradient elution (20 mM Tris pH 7.4/methanol/chloroform) from a C-18 Reverse Phase 201TP54 column (Vydac, Separations Group, Hesperia, Calif.) as described by McClean et al., Clin. Chem., 28:693-96 (1982) and Derguini et al., Angew. Che. Int. Ed. Engl., 33:1839-41 (1994), which are hereby incorporated by reference.
Kinetic studies were performed with native retinol dehydratase (0.1 μg/assay) and ^3 H-retinol in the presence of constant substrate carrier protein concentrations, either delipidated BSA or recombinant cellular retinol binding protein ("CRBP"). The initial rate of AR synthesis at different substrate concentrations was determined by radiomatic detection of ^3 H-AR after HPLC separation.
Carrier protein for retinol (delipidated bovine serum albumin or recombinant human CRBP) was added to reduce nonspecific binding and micelle formation.

B lymphocyte = conditions: Buck et al. 1993; cited from earlier work
resting T lymphocytes = conditions: Buck et al. 1993; cited from earlier work
[2] = tested on: lymphocyte and HL-60 cell; conditions: Eppinger et al. 1993, Buck et al. 1993; cited from earlier work
retinol dehydratase [3] = biological target: T1, retinol dehydratase; experiment: Fluorimetric titration of recombinant retinol dehydratase with retinol (direct binding, no cofactor)
Procedure: Binding was monitored by following the fluorescence enhancement of retinol (excitation--330 nm; emission--480 nm, open circles). The fluorescence contribution of free retinol was determined by titration with retinol in the absence of protein (open squares), analyzed by linear regression analysis (dashed line) and subtracted from the titration data to give the corrected titration binding curve (closed circles). The data were fitted (solid line) using an equation derived from simple binding theory.
Retinol is an efficient fluorophore and its interactions with proteins are often accompanied by a marked increase in its fluorescence. […]
Recombinant retinol dehydratase (lμM) was titrated with retinol from a concentrated solution in ethanol (final ethanol concentration <2.0%). Binding was monitored by following the fluorescence enhancement of retinol (excitation--330 nm; emission--480 nm, open circles). The fluorescence contribution of free retinol was determined by titration with retinol in the absence of protein (FIG. 5B, open squares), analysed by linear regression analysis (FIG. 5B, dashed line) and subtracted from the titration data to give the corrected titration binding curve (FIG. 5B, closed circles). […]

BSA = BSA (Bos taurus, UniProt P02769); conditions: published value; read-out: BSA Kd for retinol; cited from earlier work
CRBP-1 = biological target: T2, CRBP-1 (Rattus norvegicus, UniProt P02696); conditions: published value; read-out: CRBP Kd for retinol; cited from earlier work
T2 sequence (P02696 1-135): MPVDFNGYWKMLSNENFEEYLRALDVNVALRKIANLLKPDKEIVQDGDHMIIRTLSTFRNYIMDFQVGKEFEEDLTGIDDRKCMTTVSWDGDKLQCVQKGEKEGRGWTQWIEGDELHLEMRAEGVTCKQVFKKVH

[4] = 4 day starved cells, 2 μM retinol or 2 μM 14-HRR

Sequence of BSA (P02769 25-607): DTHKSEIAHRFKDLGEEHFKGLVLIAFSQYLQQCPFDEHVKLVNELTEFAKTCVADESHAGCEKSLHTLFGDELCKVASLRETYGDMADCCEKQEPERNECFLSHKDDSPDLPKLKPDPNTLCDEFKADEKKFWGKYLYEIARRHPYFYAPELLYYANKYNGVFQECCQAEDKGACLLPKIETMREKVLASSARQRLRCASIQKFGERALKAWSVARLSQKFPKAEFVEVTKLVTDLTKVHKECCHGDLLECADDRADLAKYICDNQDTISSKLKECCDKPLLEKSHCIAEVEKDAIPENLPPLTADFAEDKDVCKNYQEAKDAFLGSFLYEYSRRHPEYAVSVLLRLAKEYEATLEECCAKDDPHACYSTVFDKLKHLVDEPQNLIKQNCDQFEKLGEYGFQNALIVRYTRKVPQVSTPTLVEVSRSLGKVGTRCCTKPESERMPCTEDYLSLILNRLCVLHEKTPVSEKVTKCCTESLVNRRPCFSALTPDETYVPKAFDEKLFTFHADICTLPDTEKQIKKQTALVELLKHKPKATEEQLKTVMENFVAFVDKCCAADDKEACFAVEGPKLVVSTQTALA

O=CCCCC=O [glutaraldehyde]
inhibition of cellular production of AR compared to controls (Sf-21 cells; 2% glutaraldehyde fixation): 90%

CC1=C(/C=C/C(C)=C/C=C/C(C)=C/C(=O)O)C(C)(C)CCC1 [retinoic acid]
activation of resting cells (NIH 3T3 cells; ≤5 μM): unable to activate

C=C/C(C)=C/C=C/C(C)=C/C=C1/C(C)=CCCC1(C)C [anhydroretinol]
reaction rate (product inhibition) (retinol dehydratase [1]; ratio of 50:1 for anhydroretinol to retinol): halved
inhibition of activation by retinol and 14-HRR (NIH 3T3 cells; 3T3 cells): competitively inhibits
time after activation within which added anhydroretinol prevents activation (NIH 3T3 cells; 10^-5 M anhydroretinol, activation by 5% fetal calf serum, 2 μM retinol or 2 μM 14-HRR): ≤ 90 min
inhibition of activation by serum (NIH 3T3 cells; 4 day starved cells, FIG. 8): blocks activation by serum in a dose-dependent manner; also recorded: competitively inhibits
block of activation when added late (NIH 3T3 cells; anhydroretinol added after 2 hours): unable to block activation
effect on B lymphocyte proliferation (B lymphocyte): blocks
effect on activation of resting T lymphocytes (resting T lymphocytes): blocks
effect on retinol and 14-HRR supported lymphocyte and HL-60 cell growth [2]: competitively inhibits

CC1=CCCC(C)(C)C1=C/C=C(C)/C=C/C=C(\C)C(O)CO (stereo not shown) [14-HRR, 14-hydroxy-4,14-retro-retinol]
time from the start of activation to entry of the S phase (NIH 3T3 cells; [4]): 16 h
activation of growth arrested cells (thymidine incorporation over 24 hours) (NIH 3T3 cells): activated the cells at least as well as serum
concentrations that activate resting 3T3 cells (dose-response) (NIH 3T3 cells): submicromolar

PDGF
activation of growth arrested cells (thymidine incorporation over 24 hours) (NIH 3T3 cells): had no effect
entry of treated cells into the S phase (NIH 3T3 cells): did not enter the S phase
activation of resting cells (NIH 3T3 cells; ≤1000 ng/ml): unable to activate

Nc1ncnc2c1ncn2[C@@H]1O[C@H](COP(=O)(O)OS(=O)(=O)O)[C@@H](O)[C@H]1O [adenosine 5'-phosphosulfate]
activity as cofactor in the [3H]-retinol assay (retinol dehydratase [1]; purified recombinant retinol dehydratase, concentration range tested 1-10 μM): not active

Insulin: bovine insulin, 5 μg/ml in ITLB medium
activation of resting 3T3 cells (NIH 3T3 cells; insulin 5 μg/ml in the defined medium, alone): did not activate

[N-]=[N+]=[N-] [sodium azide]
inhibition of cellular production of AR compared to controls (Sf-21 cells; 0.1% sodium azide treatment): 96%

CCCCCCCCCCCCCC(=O)O[C@@H]1[C@@H](C)[C@@]2(O)[C@@H](C=C(CO)C[C@]3(O)C(=O)C(C)=C[C@@H]23)[C@@H]2C(C)(C)[C@]12OC(C)=O [phorbol ester]
entry of treated cells into the S phase (NIH 3T3 cells): did not enter the S phase
activation of resting cells (NIH 3T3 cells; ≤1 μM): unable to activate

Nc1ncnc2c1ncn2[C@@H]1O[C@H](COP(=O)(O)OS(=O)(=O)O)[C@@H](OP(=O)(O)O)[C@H]1O [PAPS, 3'-phosphoadenosine 5'-phosphosulfate]
restoration of retinol dehydratase activity (cofactor) (retinol dehydratase [1]; purified recombinant retinol dehydratase, [3H]-retinol assay): necessary and sufficient to restore activity

CC1=C(/C=C/C(C)=C/C=C/C(C)=C/CO)C(C)(C)CCC1 [retinol]
Vmax (retinol dehydratase [1]; all assays, with carrier protein, n=5): 490±50 pmoles AR min^-1 enzyme
Vmax (retinol dehydratase [1]; native retinol dehydratase 0.1 μg/assay, 3H-retinol, representative experiment, non-linear regression): 530 pmol/mg/min
Kd (retinol dehydratase [3]; n=3, read-out: range of equilibrium dissociation constant (Kd)): 2 to 15 nM
Kd (retinol dehydratase [3]; recombinant enzyme 0.5-1 μM, no cofactor, to be considered an upper limit, read-out: equilibrium dissociation constant (Kd)): 9 nM
time from the start of activation to entry of the S phase (NIH 3T3 cells; [4]): 16 h
activation of growth arrested cells (thymidine incorporation over 24 hours) (NIH 3T3 cells): activated the cells at least as well as serum
concentrations that activate resting 3T3 cells (dose-response) (NIH 3T3 cells): submicromolar
Kd (BSA): 1000 nM
Kd (CRBP-1): 12 nM
